In one assay the test system is H460 cells. Nature of the assay: glycine/nucleoside protection of growth inhibition in H460 cells. The class given is cell-based, human. Particulars: for protection from growth inhibition by combined adenosine and glycine: adenosine 60 µM plus glycine 130 µM; for protection from growth inhibition by glycine or adenosine alone: glycine 130 µM or adenosine 60 µM, singly. As for the experimental part:
We also tested the protective effects of AICA (320 µM) which is metabolized to AICAR (ZMP) (AICARFTase substrate), thus circumventing the GARFTase step in de novo purine biosynthesis (27) (see FIG. 1). […] Analogous results were obtained with HCT116 and MIA PaCa-2 tumor cells (see FIG. 14).
For proliferation assays of the HCT116, H460, and MIA PaCa2 tumor cell lines, the cells were plated in 96-well plates in an identical manner to the CHO experiments, except that the maximal drug concentration was increased to 10 µM. Glycine/nucleoside protection experiments in CHO and tumor cell lines were performed in folate- and glycine-free RPMI 1640/10% dialyzed fetal bovine serum supplemented with 25 nM leucovorin without additions, or in the presence of adenosine (60 µM), thymidine (10 µM), glycine (130 µM) and/or 5-aminoimidazole-4-carboxamide (AICA) (320 µM). Growth of metabolite-treated cells was normalized to controls treated with metabolites and vehicle (i.e., DMSO) both singly and in combination. Treatments with all metabolites were performed in parallel on the same plate for a given drug.

Another assay has as its system PC43-10 (RFC) (CHO). Nature of the assay: proliferation assay, PC43-10 CHO cells expressing RFC only. Conditions: folate-/glycine-free RPMI1640 with 25 nM leucovorin, 96 h, drug 0-1000 nM, read-out: IC50s (SE) PC43-10 (RFC) (CHO). It is filed as cell-based, Chinese hamster. As for the experimental part: (§1) Proliferation assays were performed with engineered Chinese hamster ovary (CHO) cell lines R2 (transporter-null), PC43-10 (expresses RFC only), RT16 (FRα only), and R2/PCFT4 (PCFT only) cultured in folate-/glycine-free RPMI1640 supplemented with 25 nM leucovorin. Additional results are shown for HCT116 (colon tumor cells (CTC)), IGROV1 (epithelial ovarian cancer (EOC) cells), H460 (non-small cell lung cancer (NSCLC) cells), MIAPaCa-2 (pancreatic cancer (PaC) cells), and HPAC (PaC).
(§2) Cell culture and proliferation/protection assays. The HCT116 cell lines including the serine hydroxymethyltransferase (SHMT) 1, SHMT2, and methylene THF dehydrogenase 2 (MTHFD2) knockout (KO) cells were previously described (47,53). The H460 cell line was obtained from the American Type Culture Collection (Manassas, VA), whereas the MIA PaCa-2 cells were provided by Dr. Yubin Ge (Karmanos Cancer Institute). Cell lines were verified by STR analysis by Genetica DNA Laboratories (Burlington, NC). MTXRIIOua^R2-4 (i.e. R2) Chinese hamster ovary (CHO) cells were generously provided by Dr. Wayne Flintoff (University of Western Ontario) (54). From this parental R2 cell line, human RFC and PCFT were individually transfected to generate the isogenic CHO cell lines designated PC43-10 (RFC) and R2/PCFT4 (PCFT) (55-57). Human tumor cell lines were cultured in folate-free RPMI supplemented with 10% dialyzed fetal bovine serum (Sigma-Aldrich), 1% penicillin/streptomycin solution, 2 mM L-glutamine, and 25 nM leucovorin in a humidified atmosphere at 37° C. in the presence of 5% CO2 and 95% air. The CHO cell lines were cultured in alpha-minimal essential medium (alpha-MEM) supplemented with 10% bovine calf serum, 1% penicillin/streptomycin solution, and 2 mM L-glutamine. Additionally, the transfected CHO cell lines (i.e. R2/PCFT4 and PC43-10) were maintained under continuous selection with 1 mg/ml of G418.
For proliferation assays with the CHO cell lines, the cells were treated with drugs (0-1 µM) in a 96-well plate (2000 cells/well) in glycine-free, nucleoside-free folate-free RPMI supplemented with 10% dialyzed fetal bovine serum, 1% penicillin/streptomycin, 2 mM L-glutamine, and 25 nM leucovorin (final volume 200 µL) over a 96 h incubation period at 37° C. with 5% CO2. […] To quantify viable cells, the media was removed and plates were washed once with 100 µL Dulbecco’s Phosphate-Buffered Saline (PBS), after which 100 µL PBS and 20 µL Cell Titer-blue (Promega) were added. Relative cell numbers were proportional to the fluorescence measured with a fluorescence plate reader (590 nm emission, 560 nm excitation). Background fluorescence (cell-free wells treated with Cell Titer-blue) was subtracted and these corrected values were normalized to results for cells treated in an identical manner without drugs.

A further assay deals with H460 (NSCLC). Description: proliferation assay, H460 non-small cell lung cancer cells. It is filed as cell-based, human. Particulars: folate-/glycine-free RPMI1640 with 25 nM leucovorin, 96 h, read-out: IC50s (SE) H460 (NSCLC). As for the experimental part:
as §1
as §2, with “G418. […]” for “G418.”

In a further assay the test system is HCT116 (CTC). Nature of the assay: proliferation assay, HCT116 colon tumor cells. It is filed as cell-based, human. Particulars: folate-/glycine-free RPMI1640 with 25 nM leucovorin, 96 h, read-out: IC50s (SE) HCT116 (CTC). As for the experimental part: as §1
as §2, with “G418. […]” for “G418.”

Read-outs that look alike come from different tables or passages of the source.

`Nc1nc2ccn(CCCc3ccc(C(=O)N[C@@H](CCC(=O)O)C(=O)O)cc3)c2c(=O)[nH]1` [AGF291]: in the assay on H460 cells, the “protection from growth inhibition by combined adenosine and glycine” value was “substantially protective”. Further, the “protection from growth inhibition by glycine or adenosine alone” value in the assay with H460 cells was “neither glycine nor adenosine alone was fully protective”. Further, the IC50 in the assay on PC43-10 (RFC) (CHO) (Cricetulus griseus, PC43-10) was found to be 454 nM; in the assay with H460 (NSCLC) (Homo sapiens, NCI-H460), 461 nM; in the assay on HCT116 (CTC) (Homo sapiens, HCT-116) it was 2270 nM.

For the compound “(2-amino-4-oxo-3,4-dihydro-5H-pyrrolo[3,2-d]pyrimidin-5-yl)butyl)-2-fluorobenzoyl)-L-glutamic acid [AGF347]”, the “protection from growth inhibition by combined adenosine and glycine” value in the assay with H460 cells is given as “substantially protective”. In addition, the “protection from growth inhibition by glycine or adenosine alone” value with H460 cells is given as “neither glycine nor adenosine alone was fully protective”. Besides, the IC50 is 224 nM with PC43-10 (RFC) (CHO), 214 nM in the assay on H460 (NSCLC) and 437 nM with HCT116 (CTC).

Take `Nc1nc2ccn(CCCCCc3ccc(C(=O)N[C@@H](CCC(=O)O)C(=O)O)s3)c2c(=O)[nH]1` [AGF320]: in the assay with H460 cells (AICA 320 µM with glycine), the “reversal of growth inhibition by AICA (with glycine)” value is “modestly (and incompletely) reversed”. Moreover, the “protection from growth inhibition by combined adenosine and glycine” value in the assay with H460 cells was “substantially protective”. Moreover, the “protection from growth inhibition by glycine or adenosine alone” value with H460 cells was “neither glycine nor adenosine alone was fully protective”. The IC50 was above 1000 nM in the assay on PC43-10 (RFC) (CHO), 573 nM in the assay on H460 (NSCLC) and 737 nM in the assay with HCT116 (CTC).

The values are drawn from patent US20230091810A1, “FIRST-IN-CLASS OF SHMT2 AND MTHFD2 INHIBITORS AS ANTITUMOR AGENTS” (Duquesne University of the Holy Spirit, priority 2017, published 2023).
